# According to patent US9493468B2, “Antifungal 5,6-dihydro-4H-pyrrolo[1,2-a][1,4]benzo-diazepines and 6H-pyrrolo[1,2-a][1,4]benzodiazepines substituted with heterocyclic derivatives” (Janssen Pharmaceutica NV, priority 2011, dated 2016):
# Experiments:
# Format in all cases: cell-based
# [1] = test system: Scedosporium apiospermum; assay: Antifungal activity in vitro, resazurin growth inhibition: Scedosporium apiospermum (IHEM3817)
# Summary of the method: (§1)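 Broth microdilution: RPMI-1640/L-Gln/2% glucose, MOPS pH 7.0±0.1; 10^3 cfu/well; top concentration 64 μM, 2- or 4-fold steps. Dermatophytes at 27° C., one week or more. Resazurin 0.005% (w/v) added, fluorescence 550/590 nm.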
# [2] = test system: Trichophyton rubrum; assay: Antifungal activity in vitro, resazurin growth inhibition: Trichophyton rubrum (B68183)
# Summary of the method: (§2)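 Compound dilutions, with 64 μM as the highest in-test level, are spotted onto plates, then an inoculum of 10^3 cfu in RPMI-1640 plus 2% glucose (MOPS, pH 7.0±0.1) is added. Plates are incubated at species-dependent time and temperature, up to a week or more at 27° C. for dermatophytes.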
# [3] = test system: Microsporum canis; assay: Antifungal activity in vitro, resazurin growth inhibition: Microsporum canis (B68128)
# Summary of the method: as §2
# [4] = test system: Trichophyton mentagrophytes; assay: Antifungal activity in vitro, resazurin growth inhibition: Trichophyton mentagrophytes (B70554)
# Summary of the method: as §2
# [5] = test system: Aspergillus fumigatus; assay: Antifungal activity in vitro, resazurin growth inhibition: Aspergillus fumigatus (B42928)
# Summary of the method: as §1
# [6] = test system: Rhizomucor miehei; assay: Antifungal activity in vitro, resazurin growth inhibition: Rhizomucor miehei (IHEM13391)
# Summary of the method: as §1
# [7] = test system: Rhizopus oryzae; assay: Antifungal activity in vitro, resazurin growth inhibition: Rhizopus oryzae (IHEM5223)
# Summary of the method: as §1
# [8] = test system: Candida parapsilosis; assay: Antifungal activity in vitro, resazurin growth inhibition: Candida parapsilosis (B66126)
# Summary of the method: as §1
# [9] = test system: Sporothrix schenkii; assay: Antifungal activity in vitro, resazurin growth inhibition: Sporothrix schenkii (B62482)
# Summary of the method: as §1
# [10] = test system: Scedosporium prolificans; assay: Antifungal activity in vitro, resazurin growth inhibition: Scedosporium prolificans (IHEM21157)
# Summary of the method: as §1
# [11] = test system: Cryptococcus neoformans; assay: Antifungal activity in vitro, resazurin growth inhibition: Cryptococcus neoformans (B66663)
# Summary of the method: as §1
"Inf. H: Scedosporium apiospermum IHEM3817, pIC50 [1]","Inf. C: Trichophyton rubrum B68183, pIC50 [2]","Inf. B: Microsporum canis B68128, pIC50 [3]","Inf. G: Trichophyton mentagrophytes B70554, pIC50 [4]","Inf. E: Aspergillus fumigatus B42928, pIC50 [5]","Inf. K: Rhizomucor miehei IHEM13391, pIC50 [6]","Inf. J: Rhizopus oryzae IHEM5223, pIC50 [7]","Inf. D: Candida parapsilosis B66126, pIC50 [8]","Inf. A: Sporothrix schenkii B62482, pIC50 [9]","Inf. I: Scedosporium prolificans IHEM21157, pIC50 [10]","Inf. F: Cryptococcus neoformans B66663, pIC50 [11]",SMILES
<4.19,7.16,6.68,6.66,5.66,<4.19,<4.19,4.54,4.50,6.48,<4.19,Cc1ccc2oc(C3=NCc4c(Cl)cccc4-n4cccc43)cc2c1 [Compound 134]
5.78,6.83,6.99,6.83,<4.19,<4.19,<4.19,<4.19,<4.19,6.32,<4.19,Cc1ccc2cc(C3=NCc4c(Cl)cccc4-n4cccc43)oc2c1 [Compound 138]
<4.19,6.86,6.88,7.64,<4.19,<4.19,<4.19,<4.19,<4.19,5.05,<4.19,COc1cccc2cc(C3=NCc4c(Cl)cccc4-n4cccc43)oc12 [Compound 141]
<4.19,6.19,5.76,5.44,<4.19,<4.19,<4.19,<4.19,<4.19,4.80,<4.19,COc1ccc2oc(C3=NCc4c(Cl)cccc4-n4cccc43)cc2c1 [Compound 146]
<4.19,8.25,6.14,6.15,6.00,<4.19,<4.19,4.68,5.52,5.93,4.57,Clc1cccc2c1CN=C(c1ccc3ccoc3c1)c1cccn1-2 [Compound 150]
4.28,6.85,6.34,6.46,6.26,<4.19,<4.19,5.59,5.11,5.15,5.82,Clc1cccc2c1CN=C(c1ccc3occ(Cl)c3c1)c1cccn1-2 [Compound 152]
6.47,6.12,5.96,5.40,5.04,<4.19,<4.19,<4.19,5.02,6.27,4.56,Clc1cccc2c1CN=C(c1cnc3occc3c1)c1cccn1-2 [Compound 161]

# The remaining lines, values behind:
SMILES,"Inf. H: Scedosporium apiospermum IHEM3817, pIC50 [1]","Inf. C: Trichophyton rubrum B68183, pIC50 [2]","Inf. B: Microsporum canis B68128, pIC50 [3]","Inf. G: Trichophyton mentagrophytes B70554, pIC50 [4]","Inf. E: Aspergillus fumigatus B42928, pIC50 [5]","Inf. K: Rhizomucor miehei IHEM13391, pIC50 [6]","Inf. J: Rhizopus oryzae IHEM5223, pIC50 [7]","Inf. D: Candida parapsilosis B66126, pIC50 [8]","Inf. A: Sporothrix schenkii B62482, pIC50 [9]","Inf. I: Scedosporium prolificans IHEM21157, pIC50 [10]","Inf. F: Cryptococcus neoformans B66663, pIC50 [11]"
Cc1cccc2cc(C3=NCc4ccccc4-n4cccc43)oc12 [Compound 130],6.01,7.69,6.70,6.79,6.00,4.91,4.95,5.35,5.50,5.08,6.31
Cc1cccc2c1CN=C(c1cc3cccc(C)c3o1)c1cccn1-2 [Compound 131],5.355,7.10,6.50,6.31,6.11,4.59,<4.34,4.81,5.51,5.99,6.11
Cc1ccc2cc(C3=NCc4ccccc4-n4cccc43)oc2c1 [Compound 137],5.16,7.18,6.81,6.89,6.00,4.50,4.48,4.74,5.52,6.21,5.10
Cc1ccc2cc(C3=NCc4c(C)cccc4-n4cccc43)oc2c1 [Compound 140],5.35,7.50,6.44,6.11,5.05,4.68,<4.19,4.34,6.23,6.36,4.60
COc1cccc2cc(C3=NCc4c(C)cccc4-n4cccc43)oc12 [Compound 144],4.71,>8.41,6.49,7.45,5.62,4.44,<4.19,4.57,5.69,6.26,5.31
Fc1cccc2cc(C3=NCc4c(Cl)cc(Cl)cc4-n4cccc43)oc12 [Compound 149],<4.19,6.10,5.35,5.61,5.47,<4.19,<4.19,<4.19,<4.19,5.79,4.81
Fc1cc(F)c2c(c1)-n1cccc1C(c1cc3cc(Cl)cnc3o1)=NC2 [Compound 158],4.37,5.72,5.70,5.17,<4.19,<4.19,<4.19,<4.19,<4.19,6.00,5.20
c1ccc2c(c1)CN=C(c1cc3ccccc3s1)c1cccn1-2 [Compound 163],5.63,6.71,6.14,5.99,5.61,5.06,4.98,5.12,5.59,6.27,6.51
Cc1cccc2c1-n1cccc1C(c1cc3ccccc3s1)=NC2 [Compound 164],5.66,6.51,5.86,6.29,5.70,5.15,<4.19,4.97,5.40,6.44,5.85
